Reference: ChEMBL document CHEMBL1151398, “New taxanes from Taxus brevifolia” (1982)

Columns and labels:
KB = assay: Cytotoxicity against human KB cells; assay type: functional; design: concentration or dose not given beside the values
Astrocyte = assay: Astrocyte reversal activity in astrocytes; assay type: functional; conditions: read-out: ED50 (the source's name)

EC50 (Astrocyte) [µg/mL]	Compound	Activity (KB) [%]
< 0.01	CC(=O)O[C@H]1C[C@H]2OC[C@@]2(OC(C)=O)[C@H]2[C@H](OC(=O)c3ccccc3)[C@]3(O)C[C@H](OC(=O)[C@H](OC(C)=O)[C@@H](NC(=O)c4ccccc4)c4ccccc4)C(C)=C([C@@H](O)C(=O)[C@]12C)C3(C)C	16
28	C=C1[C@@H](O)C[C@H](OC(C)=O)[C@@]2(C)[C@@H](OC(C)=O)[C@H](OC(C)=O)C3=C(C)[C@@H](OC(C)=O)C[C@@H]([C@@H](OC(C)=O)[C@H]12)C3(C)C [DECINNAMOYLTAXININE J]	16
< 0.01	CC(=O)O[C@H]1C(=O)[C@@]2(C)[C@H]([C@H](OC(=O)c3ccccc3)[C@]3(O)C[C@H](OC(=O)[C@H](O)[C@@H](NC(=O)c4ccccc4)c4ccccc4)C(C)=C1C3(C)C)[C@]1(OC(C)=O)CO[C@@H]1C[C@@H]2O [PACLITAXEL]	31

Compound	EC50 (Astrocyte) [µg/mL]	Activity (KB) [%]
CC(=O)O[C@@]12CO[C@@H]1C[C@H](O)[C@@]1(C)C(=O)[C@H](O)C3=C(C)[C@@H](O)C[C@@](O)([C@@H](OC(=O)c4ccccc4)[C@H]21)C3(C)C	1	16
CC(=O)O[C@H]1C(=O)[C@]2(C)[C@@H](OC(C)=O)C[C@H]3OC[C@@]3(OC(C)=O)[C@H]2[C@H](OC(=O)c2ccccc2)[C@]2(O)C[C@H](OC(=O)[C@H](OC(C)=O)[C@@H](NC(=O)c3ccccc3)c3ccccc3)C(C)=C1C2(C)C	0.03	16
